Experimental data as given in US20180051221A1, “UNLEADED GASOLINE FORMULATIONS FOR PISTON ENGINES” (Swift Fuels, LLC, priority 2014, published 2018).
Read-outs that look alike come from different tables or passages of the source.

Columns and labels:
[1] = Octane enhancement by aromatic amines blended into aviation gasoline (compared to baseline avgas); conditions: for Octane @ 6%*: amine at 6% in aviation gasoline; for Octane @ 9%*: amine at 9% in aviation gasoline
[2] = Solubility / physical state remarks on aromatic amines as avgas components; assay type: physicochemical; conditions: remark on solubility above 6% or solid state at RT; b32 calls these solubility problems
rat = conditions: cited from earlier work
[3] = cited from earlier work; for OSHA Hazards: public MSDS / OSHA data
[4] = within 10 days; cited from earlier work
[5] = occupational exposure limit, estimated; cited from earlier work
[6] = oral, MSDS data from Sigma-Aldrich, et al.

Compound | Octane @ 6%* [1] | Octane @ 9%* [1] | other results
Cc1ccc(F)cc1N [5-fluoro-2-metylphenylamine] | 1.60 | 2.10 | 
Nc1ccc(F)cc1 [4-fluorophenylamine] | 4.20 | 7.50 | 
Nc1cc(F)c(F)c(F)c1F [2,3,4,5-tetrafluorophenylamine] | 1.70 | 2.50 | Other [2]: solid@RT
CNc1ccccc1 [N-methylphenylamine] | 2.10 | 2.60 | 
Cc1c(N)cccc1F [3-fluoro-2-metylphenylamine] | 1.30 | 2.70 | 
Nc1cccc(F)c1 [3-fluorophenylamine] | 4.20 | 6.70 | 
Cc1ccc(N)cc1 [4-methylphenylamine] | 6.10 |  | 
C[CH2][Pb]([CH2]C)([CH2]C)[CH2]C [TEL, Tetraethyl lead] |  |  | LD50 (rat, oral) (rat; [6]): 14 mg/kg
Cc1cc(C)cc(N)c1 [3,5-dimethylphenylamine] | 5.70 | 8.70 | 
Cc1cccc(N)c1 [3-methylphenylamine] | 5.40 | 7.40 | LD50 (rat, oral) (rat; in vivo, po): 450 mg/kg
Nc1ccccc1F [2-fluorophenylamine] | 4.20 | 7.30 | 
CCc1cccc(N)c1 [3-ethylphenylamine] | 3.80 | 6.60 | 
Cc1cc(C)cc(C)c1 [Mesitylene] |  |  | LD50 (rat, oral) (rat; [6]): 5,000 mg/kg
Cc1ccccc1 [Toluene] |  |  | LD50 (rat, oral) (rat; [6]): 5,000 mg/kg
CCNc1ccccc1 [N-ethylphenylamine] | −2.50 |  | 
Cc1cc(F)ccc1N [4-fluoro-2-metylphenylamine] | 1.60 | 2.10 | 
Cc1ccc(N)cc1C [3,4-dimethylphenylamine] | 5.60 |  | 
Nc1ccccc1 [phenylamine] | 5.70 | 8.70 | OSHA Hazards ([3]; listed as aniline): irritant; LD50 (rat, oral) (rat; in vivo, po): 250 mg/kg
c1ccccc1 [Benzene] |  |  | LD50 (rat, oral) (rat; in vivo, po): 2,990 mg/kg
CCOC(C)(C)C [ETBE, ethyl tert-butyl ether] |  |  | OSHA Hazards [3]: Irritant; LD50 (rat, oral) (rat; [6]): 5,000 mg/kg
CC(C)(C)c1ccc(N)cc1 [4-t-butylphenylamine] | 4.20 | 6.60 | 
Nc1cccc(Cl)c1 [3-chlorophenylamine] | 3.60 |  | 
CCc1ccc(N)cc1 [4-ethylphenylamine] | 3.80 | 6.30 | 
Cc1ccc(F)c(N)c1 [2-fluoro-5-metylphenylamine] | 3.60 | 5.10 | 
CC(C)c1ccc(N)cc1 [Cumidine, 4-isopropylaniline] | 4.40 | 7.20 | classification as mutagen or carcinogen ([3]; MSDS No. 818472, EMD Millipore): not classified as a mutagen or carcinogen; biodegradable [4]: 88%; TWA [5]: ~2 ppm; LD50 (rat, oral) (rat; oral, MSDS No. 818472, EMD Millipore): 757 mg/kg; LD50 (rat, oral) (rat; [6]): 757 mg/kg
Nc1ccccc1Cl [2-chlorophenylamine] | 4.50 | 5.60 | 
Cc1ccccc1N [2-methylphenylamine] | 1.70 | 2.10 | 
Cc1ccc(N)c(F)c1 [2-fluoro-4-metylphenylamine] | 4.00 | 5.10 | 
CNc1ccc(F)cc1 [N-methyl-4-fluorophenylamine] | 2.50 | 2.60 | 
